Values of other authors in patent publication US20110110858A1, “Gold nanoparticle imaging agents and uses thereof” (priority 2009, published 2011).

Conditions: 25° C.

In the case of `NCCCC[C@H](N[C@@H](CCc1ccccc1)C(=O)O)C(=O)N1CCC[C@H]1C(=O)O` [lisinopril], the “pKa of the central CO2H” value is listed as 2.5, the “pKa of the lysyl amino group” value is listed as 10.1 and the “pKa of the prolyl CO2H” value is listed as 4.0. For the same compound, the “pKa of the secondary amine group” value was 6.7.
